For one test, the target named is T1, human ABHD12 (Homo sapiens, UniProt Q8N2K0).
T1 construct: expressed in transfected cells; host or cells: HEK293T (transient transfection; membrane fraction)
T1 sequence (Q8N2K0 1-398): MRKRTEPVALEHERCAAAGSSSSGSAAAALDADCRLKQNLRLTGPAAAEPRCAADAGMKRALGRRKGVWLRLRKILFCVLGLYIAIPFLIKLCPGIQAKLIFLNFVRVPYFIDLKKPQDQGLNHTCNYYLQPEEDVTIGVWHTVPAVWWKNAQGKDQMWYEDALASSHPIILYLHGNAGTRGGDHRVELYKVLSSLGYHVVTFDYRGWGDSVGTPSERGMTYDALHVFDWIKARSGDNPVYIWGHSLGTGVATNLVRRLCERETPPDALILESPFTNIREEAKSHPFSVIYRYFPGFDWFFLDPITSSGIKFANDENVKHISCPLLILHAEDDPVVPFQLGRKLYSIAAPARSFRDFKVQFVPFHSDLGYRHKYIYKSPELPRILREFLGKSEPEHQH
Kind of test: ABHD12 activity by competitive ABPP with FP-TAMRA. The test is classed as biochemical. The conditions noted are these: 100 µM compound; competitive ABPP with probe FP-TAMRA (250 nM); read-out: ABHD12 Inhibition (%). Summed up: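 Membrane fractions of HEK293T cells transiently overexpressing human ABHD12 (1 mg/ml) preincubated with inhibitor or DMSO for 30 min at room temperature, then labelled with FP-TAMRA (250 nM final) for 20 min. Quenched samples resolved by SDS-PAGE and read by in-gel fluorescence scanning (Cy3 settings).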

For another test, the target named is T2, human MAGL (Homo sapiens, UniProt Q99685).
T2 construct: expressed in transfected cells; host or cells: HEK293T (transient transfection; membrane fraction)
T2 sequence (Q99685 1-303): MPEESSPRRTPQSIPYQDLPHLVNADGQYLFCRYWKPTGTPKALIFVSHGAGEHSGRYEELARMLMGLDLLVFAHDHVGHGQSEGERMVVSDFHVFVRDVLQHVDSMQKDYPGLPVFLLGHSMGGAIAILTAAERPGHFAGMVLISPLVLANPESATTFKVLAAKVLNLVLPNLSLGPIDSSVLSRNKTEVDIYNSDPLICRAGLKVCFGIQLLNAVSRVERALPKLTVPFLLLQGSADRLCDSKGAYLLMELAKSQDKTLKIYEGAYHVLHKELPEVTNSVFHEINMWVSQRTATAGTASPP
Kind of test: MAGL activity assay (AA-HNA fluorogenic substrate). In kind it is biochemical. In short, it runs like this:
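Membranes from transiently transfected HEK293T cells overexpressing MAGL were preincubated with inhibitor for 30 min in 40 mM HEPES pH 7.5 with 0.1 mg/ml BSA. AA-HNA substrate was then added (10 µl of 200 µM stock), and fluorescence was read every minute for 30 min. Activity was taken from the slope between 5 and 15 min.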

For the next test, the target named is T3, human ABHD6 (Homo sapiens, UniProt Q9BV23).
T3 construct: expressed in transfected cells; host or cells: HEK293T (transient transfection; membrane fraction)
T3 sequence (Q9BV23 1-337): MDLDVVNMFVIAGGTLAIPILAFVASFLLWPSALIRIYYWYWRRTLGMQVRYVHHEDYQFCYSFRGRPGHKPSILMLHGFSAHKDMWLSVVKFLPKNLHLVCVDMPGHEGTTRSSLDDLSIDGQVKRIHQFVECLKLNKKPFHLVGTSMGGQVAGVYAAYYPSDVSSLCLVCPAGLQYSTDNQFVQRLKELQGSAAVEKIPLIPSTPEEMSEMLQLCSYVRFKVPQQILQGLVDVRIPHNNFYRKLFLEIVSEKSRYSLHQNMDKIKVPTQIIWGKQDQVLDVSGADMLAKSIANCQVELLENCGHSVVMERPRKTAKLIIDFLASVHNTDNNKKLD
Kind of test: ABHD6 activity assay (AA-HNA fluorogenic substrate). In kind it is biochemical. Summed up:
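Membranes from HEK293T cells transiently overexpressing human ABHD6 (50 μg/ml final) were preincubated 30 min with inhibitor in 40 mM HEPES pH 7.5, 0.1 mg/ml BSA, 5% DMSO. Hydrolysis of 200 µM AA-HNA was followed by fluorescence for 30 min, activity taken as the 5–15 min slope.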

The subject of test [1] is serine hydrolases labeled by FP-TAMRA in mouse brain membrane proteome. Put plainly: Competitive ABPP selectivity assay, mouse brain membrane proteome. The test is classed as biochemical. The conditions noted are these: 100 µM, FP-TAMRA 250 nM. As to the method:
Mouse brains were dounce homogenized lysis buffer (20 mM HEPES, 2 mM DTT, 1 mM MgCl2, 25 U/mL benzonase) and incubated on ice for 15 min, followed by low-speed spin (2,500 g, 3 min, 4 C) to remove debris. The supernatant was subjected to ultracentrifugation (100,000 g, 45 min, 4°C) to generate the cytosolic fraction in the supernatant, as well as the membrane fraction as a pellet. After removal of the soluble supernatant, the pellet was resuspended in storage buffer (20 mM HEPES, 2 mM DTT) by pipetting. Total protein concentrations in membrane and soluble fractions were determined using a Qubit protein assay (Invitrogen). The obtained samples were stored at −80°C until further use.
The competitive ABPP selectivity assay was performed according to the previously reported protocol. Briefly, mouse brain membrane proteome (2 mg/ml, 20 µl) was preincubated for 30 min with 0.5 µl of DMSO (vehicle) or inhibitor (100 μM, finial concentration). […] The reactions were then quenched by 10 µl sample buffer (×4). The obtained samples were directly loaded and resolved on SDS-PAGE gel (10% acrylamide). The gels were then scanned and analyzed using a ChemiDoc MP system (Cy3 settings, BioRad). All the samples were measured and duplicated.

Test [2] deals with endogenous MAGL in cancer cells. Kind of test: Competitive ABPP in cancer cell lysates: MAGL band. The conditions noted are these: 10 μM preincubation, cancer cell lysates. The test is classed as biochemical. As to the method:
(§1) To identify the potential off-targets of the compounds with anti-cancer activities, ABPP was applied. Cancer cells were seeded in the dishes and were washed with PBS, scraped, centrifugated (3,000 × g, 3 min) and pellets snap frozen in liquid in nitrogen. For ABPP experiments, the cell pellets were lysed by probe sonication (3 × 10 bursts) in PBS, followed by the determination of protein concentration of the intact cell lysate by Qubit assay. […] The reactions were then quenched by 10 µl sample buffer (×4). The obtained samples were directly loaded and resolved on SDS-PAGE gel (10% acrylamide). The gel-based ABPP results were then scanned and analyzed using a ChemiDoc MP system (Cy3 settings, BioRad).

In the next test the test system is HT-29 cells. Kind of test: Cell viability assay (CCK-8), HT-29. The conditions noted are these: HT-29, 48 h. In kind it is cell-based, human. How it is done:
(§2) Various cancer cell lines, including human colon cancer cell line HT-29, ovarian cell line OVCAR-3, melanoma cell line B16-F10, skin squamous cancer cells A431, cervical cancer cells Hela, lung cancer cell lines A549, H1975, and HCC827, were purchased from American type culture collection (ATCC). A431, H1975, B16-F10, OVCAR-3, HT-29, HCC827, Hela, and A549 cells were cultured in Dulbecco’s modified Eagle medium (DMEM, Gibco) containing 10% fetal bovine serum (FBS, Gibco), penicillin (100 U/ml) and streptomycin (100 μg/ml). All cell lines were maintained in a humidified 37°C incubator with 5% CO2. The medium was refreshed every 2–3 days and the cells were passaged at ∼90% confluence by adding the fresh medium, followed by vigorously pipetting the resuspend cells. Of note, the cells were only washed with PBS when a significant number of dead cells were observed.
(§3) The antiproliferation activity of the compounds against the cancer cell lines was evaluated using Cell Counting Kit-8. Briefly, cells (∼1,000 per well) in 100 µl of culture medium were plated in a 96-well plate for 24 h and 100 µl of medium with different concentrations of the tested compounds was added to each well for 48 h. Then 10 μl of CCK8 solution (#CK04, Dojindo) was added and incubated at 37°C for 2 h. The absorbance of each well was measured with a plate reader (BioTeck) at 450 nm. Cell viability was calculated as follows: cell viability (%) = [(As-Ab)/(Ac-Ab)] × 100. Among them, As represents the absorbance of experimental wells, Ab represents the absorbance of blank wells and Ac represents the absorbance of control wells. The experiments were repeated at least three times and IC50 values were determined by plotting a log(inhibitor) v. s normalized response (Variable slope) dose–response curve generated using GraphPad Prism software.

Another test has as its system OVCAR-3 cells. Put plainly: Cell viability assay (CCK-8), OVCAR-3. In kind it is cell-based. The conditions noted are these: OVCAR-3, 48 h. How it is done:
as §2, §3

The next test relates to Hela cells. Kind of test: Cell viability assay (CCK-8), Hela. In kind it is cell-based. The conditions noted are these: 48 h. How it is done: as §2, §3
For a further test, the system named is H1975 cells. Kind of test: Cell viability assay (CCK-8), H1975. In kind it is cell-based. The conditions noted are these: H1975, 48 h. How it is done: as §2, §3
Another test deals with HCC827 cells. Put plainly: Cell viability assay (CCK-8), HCC827. The test is classed as cell-based. The conditions noted are these: HCC827, 48 h. How it is done:
as §2, §3

A further test has as its system B16-F10 cells. Put plainly: Cell viability assay (CCK-8), B16-F10. The test is classed as cell-based. The conditions noted are these: B16-F10, 48 h, CCK-8. As to the method:
as §2, §3

A further test has as its system A549 cells. Put plainly: Cell viability assay (CCK-8), A549. The test is classed as cell-based. The conditions noted are these: A549, 48 h. As to the method: as §2, §3
In the next test the test system is A431 cells. Kind of test: Cell viability assay (CCK-8), A431. The test is classed as cell-based. The conditions noted are these: A431, 48 h, CCK-8. How it is done: as §2, §3
The test system of the next test is ABHD6 in cancer cells. Put plainly: Competitive ABPP in cancer cell lysates: ABHD6 band. The test is classed as biochemical. The conditions noted are these: 10 μM preincubation, A431 and B16-F10 cells. How it is done:
as §1

The mark [3] stands for this setting: 100 µM, AA-HNA substrate assay, Supplementary Table 1, read-out: MAGL Inhibition (%).
[4] abbreviates: 100 µM, AA-HNA substrate assay, Supplementary Table 2, read-out: ABHD6 Inhibition (%).

“Also recorded” adds a separate entry of the source.

For `O=C(CCc1ccc(O)cc1)c1c(O)cc(O)cc1O` [compound 66, Dihydronaringenin], the activity is 119% at human ABHD12, 41.3% at human MAGL (setting [3]) and 115% at human ABHD6 (setting [4]). The “selectivity profile over serine hydrolases” value in test [1] is “broad-spectrum inhibitors that cross-reacted with multiple serine hydrolases”.
What is called IC50 is the concentration at which inhibition is half-maximal. As for `O=C(OC(C(F)(F)F)C(F)(F)F)N1CCC(C(O)(c2ccc3c(c2)OCO3)c2ccc3c(c2)OCO3)CC1` [KML29, reference compound], the “fluorescent band of MAGL (∼33 kDa) in ABPP gels” value in test [2] is listed as “competed away”. The “Antiproliferation activity (pIC50 ± SEM) HT-29” value in the test on HT-29 cells was 5.0 ± 0.3. Moreover, the “Antiproliferation activity (pIC50 ± SEM) OVCAR-3” value with OVCAR-3 cells was <5. In the test with Hela cells, the “Antiproliferation activity (pIC50 ± SEM) Hela” value was <5. In addition, the IC50 on human MAGL (30 min preincubation, dose-response curve, read-out: IC50 (MAGL, AA-HNA assay)) was 87 nM. At human MAGL (preincubation with 1 µM), the “effect on fluorescent signal of AA-HNA hydrolysis by MAGL” value is reported as “significantly reduced the fluorescent signal to the background level; also recorded: reduction of the fluorescent signal”. The “Antiproliferation activity (pIC50 ± SEM) H1975” value in the test with H1975 cells was <5. Moreover, in the test on HCC827 cells, the “Antiproliferation activity (pIC50 ± SEM) HCC827” value was <5. In addition, in the test with B16-F10 cells, the “Antiproliferation activity (pIC50 ± SEM) B16-F10” value was 5.0 ± 0.2. Moreover, in the test on A549 cells, the “Antiproliferation activity (pIC50 ± SEM) A549” value is given as <5. Moreover, in the test with A431 cells, the “Antiproliferation activity (pIC50 ± SEM) A431” value is <5.
Turning to `Cc1cc2c(C(C)C)c(O)c(O)c(C=O)c2c(O)c1-c1c(C)cc2c(C(C)C)c(O)c(O)c(C=O)c2c1O` [compound 34, Gossypol Acetate], the activity at 100 µM on human ABHD12 amounted to 43.7%; on human MAGL (setting [3]), 35.2%; on human ABHD6 (setting [4]), 26.3%. Further, in test [1], the “selectivity profile over serine hydrolases” value is reported as “broad-spectrum inhibitors that cross-reacted with multiple serine hydrolases”.
The like results for `O=c1c(O)c(-c2ccc(O)c(O)c2)oc2cc(O)cc(O)c12` [compound 70, Quercetin] were, in that order, 75.1%, 42%, 48.6% and “broad-spectrum inhibitors that cross-reacted with multiple serine hydrolases”.
For the compound `O=C(N1CCCCC1c1ccccc1)n1cc(-c2ccc(-c3cccc(CO)c3)cc2)nn1` (stereo not shown) [KT182, reference compound], the “effect on fluorescent signal of AA-HNA hydrolysis by ABHD6” value at human ABHD6 (10 µM) is given as “reduction of the fluorescent signal”. Besides, the “labeling of ABHD6 (∼32 kDa)” value in the test on ABHD6 in cancer cells is given as “disappeared”.
`O=C(/C=C/C=C/c1ccc2c(c1)OCO2)N1CCCCC1` [compound 68, Piperine]: the activity at 100 µM on human ABHD12 is 90.8%; on human MAGL (setting [3]) it was 99.7%; at human ABHD6 (setting [4]), 112%.
For `C[C@@H]1O[C@@H](OC[C@H]2O[C@@H](Oc3c(-c4ccc(O)c(O)c4)oc4cc(O)cc(O)c4c3=O)[C@H](O)[C@@H](O)[C@@H]2O)[C@H](O)[C@H](O)[C@H]1O` [compound 72, Rutin] the same measures were 84.3%, 75.9% and 119%.
Regarding `Cc1cc(=O)oc2cc(O)ccc12` [compound 5, 4-Methylumbelliferone], the activity at 100 µM stood at 71% at human ABHD12, 90.1% at human MAGL (setting [3]) and 92.5% at human ABHD6 (setting [4]).

The record behind these values is article PMC9465256, “Discovering monoacylglycerol lipase inhibitors by a combination of fluorogenic substrate assay and activity-based protein profiling” (Frontiers in Pharmacology, 2022).
